Measured values from US20050239724A1, “Skin penetration enhancing components” (Wyeth, priority 1997, published 2005).

How the values were obtained:
[1] = Skin biopsy tissue concentration, four 0.7 mm horizontal sections, acetonitrile extraction (Example 1); assay type: in vivo; details: human, 8 % sirolimus in the formulation
Experimental: In parallel, skin biopsies were taken from the individuals after 7 hours, the biopsy samples were glued to a glass slide and serially sectioned horizontally into 4 layers each 0.7 mm thick and extracted with acetonitrile.

[2] = Venous blood sirolimus levels after single topical application (MSGCMS); assay type: in vivo, human; details: normal skin, 4, 7 and 24 hours
Experimental: A formulation was formed of 8% sirolimus and 92% of a vehicle of capric acid (50%) with benzyl alcohol (50%). This was tested in single application experiments on four individuals with normal skin.
(§1) A formulation of sirolimus (2.2%) in a vehicle comprising isopropyl myristate 40%, benzyl alcohol 10% and capric acid 50% was tested in single application experiments on three individuals with normal skin. […] After 7 hours biopsy samples were taken from two of the individuals. These were bisected in parallel with the surface to give an upper and lower half, roughly corresponding to the epidermis and dermis. The skin was homogenised with acetonitrile and sirolimus concentration was determined by HPLC.

[3] = Skin biopsy tissue concentration, upper and lower half, HPLC (Example 2); assay type: in vivo, human; details: 7 hours after application, 2.2% sirolimus in capric acid:isopropyl myristate:benzyl alcohol 50:40:10; for concentration at 7 h: human, skin biopsy, topical, 2.2 % sirolimus in the formulation, Subject A
Experimental: as §1

chronic plaque psoriasis = assay: Double blind left-right comparison of topical sirolimus in chronic plaque psoriasis (Example 3); assay type: in vivo, human
Experimental: A double blind, left-right comparison of the effect of applying topical sirolimus in formulations as described in Examples 1 and 2, to 24 patients with chronic (over three months) plaque psoriasis was conducted. (22 out of the 24 patients were eventually analysed.) A single target plaque was treated for the first 6 weeks with the lower potency formulation of Example 2. After this the active treatment was increased to the higher potency formulation of Example 1 for 6 weeks unless a clear improvement on one side had already occurred.
Subjects were all aged over 18 years, were able to apply creams and had no other significant medical problems. Transaminases were not more than twice the upper limit of normal and subjects were selected to avoid those likely to have a holiday in sunlight during the 6-12 weeks of the trial.
Before the trial started, there was a two week washout period in which only bland emollients were applied to the target lesions.
Treatment was randomised and double blind. Hands were thoroughly washed between the twice daily application of the test formulations. The active formulation was applied consistently to one plaque while a control comprising only the vehicle base was applied consistently to the plaque on the opposite side. Where possible the arms or elbows were selected as target areas as cross contamination is less likely at these sites.
(§2) Assessments were done at weeks 0, 2, 4 and 6 on the low potency treatment and at 8, 10 and 12 on the higher dose formulation, provided there were no signs or laboratory evidence of toxicity. Clinical scoring was done at each attendance and areas traced at the start and finish of treatment. Biopsies from active and control lesions were performed at the end of treatment or at withdrawal. Biopsies were not done if an adverse event such as a reaction to the application occurred as this would influence the measures being assessed.
The lesions were also assessed at fortnightly intervals with subjective scoring on a scale of 0-8 for erythema, thickening, and scaling. […] These included pulsed A scan ultrasound measurement of lesion thickness and erythema measured with a reflectance erythema metre, both were averaged over 5 areas in each psoriatic lesion and were validated using a previous study which was performed using betamethasome as a reference.
At each visit we measured the full blood count, biochemistry, including urea, electrolytes, liver enzymes, bilirubin, calcium, magnesium, uric acid, glucose, amylase, muscle enzymes, lipids and cholesterol. […]
(§3) Cell counting in tissues was automated, using computer assisted image analysis (Seescan). Data was analysed by Student's T test for paired data and Wilcoxon's test.

CD4 helper lymphocytes = assay: Biopsy immunohistochemistry, CD4 helper lymphocytes; assay type: in vivo, human; details: lesion biopsy at end of treatment; control 61/mm^3; P-0.0026 (unpaired T-test)
Experimental: as §2
(§4) In biopsies, epidermal thickness was measured and immunoperoxidase immunohistochemistry done using the following antibodies to count cells in a blinded fashion:
(§5) Thus, antibody Ki-67 was used to give a measure of hyperproliferation in the epidermis and CD4 helper lymphocytes were used to give a measure of auto-immune activity which drives psoriasis.
as §3

Ki-67 = assay: Biopsy immunohistochemistry, Ki-67 proliferating cells in the epidermis; assay type: in vivo, human; details: lesion biopsy at end of treatment; control mean 83/mm^3; P-0.027 (unpaired T test)
Experimental: as §2, §4, §5, §3

CO[C@H]1C[C@@H]2CC[C@@H](C)[C@@](O)(O2)C(=O)C(=O)N2CCCC[C@H]2C(=O)O[C@H]([C@H](C)C[C@@H]2CC[C@@H](O)[C@H](OC)C2)CC(=O)[C@H](C)/C=C(\C)[C@@H](O)[C@@H](OC)C(=O)[C@H](C)C[C@H](C)/C=C/C=C/C=C/1C [sirolimus]
concentration at 7 h ([1]; section 1 (surface, 0-0.7 mm), topical, subject A, section 1 (surface, 0-0.7 mm), 7 hours after application, 8% sirolimus in capric acid:benzyl alcohol 50:50, read-out: Sirolimus concentration, skin section 1): 59000 ng/g
concentration at 7 h ([1]; section 1 (surface, 0-0.7 mm), topical, subject B, section 1 (surface, 0-0.7 mm), 7 hours after application, 8% sirolimus in capric acid:benzyl alcohol 50:50, read-out: Sirolimus concentration, skin section 1): 288000 ng/g
concentration at 7 h ([1]; section 1 (surface, 0-0.7 mm), topical, subject C, section 1 (surface, 0-0.7 mm), 7 hours after application, 8% sirolimus in capric acid:benzyl alcohol 50:50, read-out: Sirolimus concentration, skin section 1): 301000 ng/g
concentration at 7 h ([1]; section 1 (surface, 0-0.7 mm), topical, subject D, section 1 (surface, 0-0.7 mm), 7 hours after application, 8% sirolimus in capric acid:benzyl alcohol 50:50, read-out: Sirolimus concentration, skin section 1): 216000 ng/g
concentration at 7 h ([1]; section 2 (0.7-1.4 mm), topical, subject B, section 2 (0.7-1.4 mm), 7 hours after application, 8% sirolimus in capric acid:benzyl alcohol 50:50, read-out: Sirolimus concentration, skin section 2): 108000 ng/g
concentration at 7 h ([1]; section 2 (0.7-1.4 mm), topical, subject C, section 2 (0.7-1.4 mm), 7 hours after application, 8% sirolimus in capric acid:benzyl alcohol 50:50, read-out: Sirolimus concentration, skin section 2): 144000 ng/g
concentration at 7 h ([1]; section 2 (0.7-1.4 mm), topical, subject D, section 2 (0.7-1.4 mm), 7 hours after application, 8% sirolimus in capric acid:benzyl alcohol 50:50, read-out: Sirolimus concentration, skin section 2): 126000 ng/g
concentration at 7 h ([1]; section 3, topical, subject A, section 3, 7 hours after application, 8% sirolimus in capric acid:benzyl alcohol 50:50, read-out: Sirolimus concentration, skin section 3): 255000 ng/g
concentration at 7 h ([1]; section 3, topical, subject B, section 3, 7 hours after application, 8% sirolimus in capric acid:benzyl alcohol 50:50, read-out: Sirolimus concentration, skin section 3): 173000 ng/g
concentration at 7 h ([1]; section 3, topical, subject C, section 3, 7 hours after application, 8% sirolimus in capric acid:benzyl alcohol 50:50, read-out: Sirolimus concentration, skin section 3): 339000 ng/g
concentration at 7 h ([1]; section 3, topical, subject D, section 3, 7 hours after application, 8% sirolimus in capric acid:benzyl alcohol 50:50, read-out: Sirolimus concentration, skin section 3): 256000 ng/g
concentration at 7 h ([1]; section 4, topical, subject A, section 4, 7 hours after application, 8% sirolimus in capric acid:benzyl alcohol 50:50, read-out: Sirolimus concentration, skin section 4): 239000 ng/g
concentration at 7 h ([1]; section 4, topical, subject B, section 4, 7 hours after application, 8% sirolimus in capric acid:benzyl alcohol 50:50, read-out: Sirolimus concentration, skin section 4): 214000 ng/g
concentration at 7 h ([1]; section 4, topical, subject C, section 4, 7 hours after application, 8% sirolimus in capric acid:benzyl alcohol 50:50, read-out: Sirolimus concentration, skin section 4): 370000 ng/g
concentration at 7 h ([1]; section 4, topical, subject D, section 4, 7 hours after application, 8% sirolimus in capric acid:benzyl alcohol 50:50, read-out: Sirolimus concentration, skin section 4): 241000 ng/g
sirolimus levels in venous blood ([2]; 2.2% sirolimus in isopropyl myristate 40%, benzyl alcohol 10%, capric acid 50%, three individuals, MSGCMS): no significant levels of sirolimus were detected
sirolimus levels in venous blood ([2]; 8% sirolimus in capric acid:benzyl alcohol 50:50, four individuals, MSGCMS detects down to 0.1 ng/ml): no significant levels of sirolimus were detected
Sirolimus Concentration, lower skin segment ([3]; Subject B, Lower (2), roughly dermis): 0.5 µg/mg
Sirolimus Concentration, upper skin segment ([3]; Subject B, Upper (1), roughly epidermis): 1.5 µg/mg
concentration at 7 h ([3]; lower half (roughly dermis), Lower (2), roughly dermis, read-out: Sirolimus Concentration, lower skin segment): 333000 ng/g
concentration at 7 h ([3]; upper half (roughly epidermis), Upper (1), roughly epidermis, read-out: Sirolimus Concentration, upper skin segment): 0 ng/g
contact sensitivity to the topical preparations (chronic plaque psoriasis; 22 analysed patients, one to benzyl alcohol, one to sirolimus and one to both): Three of the twenty-two patients developed contact sensitivity
Ultrasound thickness, mean (chronic plaque psoriasis; psoriatic lesion, topical twice daily, 2.2% then 8% formulation, vehicle control 2.96, NS): 2.99 mm
Erythema measurement, mean (chronic plaque psoriasis; reflectance erythema metre, topical twice daily, 2.2% then 8% formulation, vehicle control 33.1, NS): 34.5 arbitrary units
Clinical Score, mean (chronic plaque psoriasis; scale of 0-24, high values indicating a better result, final score, topical twice daily, 2.2% formulation 6 weeks then 8% formulation 6 weeks, vehicle control 9.1, p = 0.032): 11.2
CD4 cells, mean (CD4 helper lymphocytes): 32.7 /mm^3
Ki-67 proliferating cells, mean (Ki-67): 55 /mm^3
